# Data: ChEMBL document CHEMBL5291721, “A preclinical secondary pharmacology resource illuminates target-adverse drug reaction associations of marketed drugs” (Nat Commun, 2023)
# What was measured:
# [1] = biological target: Histamine H1 receptor (Homo sapiens, UniProt P35367); format: functional, cell-based
# [2] = biological target: 5-hydroxytryptamine receptor 6 (Homo sapiens, UniProt P50406)
# [3] = biological target: Substance-P receptor (Homo sapiens, UniProt P25103)
# [4] = biological target: Cannabinoid receptor 1 (Homo sapiens, UniProt P21554); format: functional
# Sequence of Cannabinoid receptor 1 (P21554 whole entry): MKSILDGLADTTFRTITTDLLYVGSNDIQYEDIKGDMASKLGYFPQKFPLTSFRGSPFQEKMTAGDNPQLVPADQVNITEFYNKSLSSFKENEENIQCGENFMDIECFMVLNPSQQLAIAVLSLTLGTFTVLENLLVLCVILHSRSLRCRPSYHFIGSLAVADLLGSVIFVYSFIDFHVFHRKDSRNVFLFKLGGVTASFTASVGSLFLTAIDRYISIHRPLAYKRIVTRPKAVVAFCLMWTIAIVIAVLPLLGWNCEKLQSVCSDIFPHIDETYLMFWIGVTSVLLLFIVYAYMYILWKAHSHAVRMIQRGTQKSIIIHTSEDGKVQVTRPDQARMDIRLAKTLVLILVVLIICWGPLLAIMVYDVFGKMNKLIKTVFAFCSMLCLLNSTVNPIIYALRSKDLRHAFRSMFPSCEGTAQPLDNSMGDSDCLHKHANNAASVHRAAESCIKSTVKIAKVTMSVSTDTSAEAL
# [5] = biological target: Rod cGMP-specific 3',5'-cyclic phosphodiesterase subunit alpha (Homo sapiens, UniProt P16499); format: functional
# Sequence of Rod cGMP-specific 3',5'-cyclic phosphodiesterase subunit alpha (P16499 whole entry): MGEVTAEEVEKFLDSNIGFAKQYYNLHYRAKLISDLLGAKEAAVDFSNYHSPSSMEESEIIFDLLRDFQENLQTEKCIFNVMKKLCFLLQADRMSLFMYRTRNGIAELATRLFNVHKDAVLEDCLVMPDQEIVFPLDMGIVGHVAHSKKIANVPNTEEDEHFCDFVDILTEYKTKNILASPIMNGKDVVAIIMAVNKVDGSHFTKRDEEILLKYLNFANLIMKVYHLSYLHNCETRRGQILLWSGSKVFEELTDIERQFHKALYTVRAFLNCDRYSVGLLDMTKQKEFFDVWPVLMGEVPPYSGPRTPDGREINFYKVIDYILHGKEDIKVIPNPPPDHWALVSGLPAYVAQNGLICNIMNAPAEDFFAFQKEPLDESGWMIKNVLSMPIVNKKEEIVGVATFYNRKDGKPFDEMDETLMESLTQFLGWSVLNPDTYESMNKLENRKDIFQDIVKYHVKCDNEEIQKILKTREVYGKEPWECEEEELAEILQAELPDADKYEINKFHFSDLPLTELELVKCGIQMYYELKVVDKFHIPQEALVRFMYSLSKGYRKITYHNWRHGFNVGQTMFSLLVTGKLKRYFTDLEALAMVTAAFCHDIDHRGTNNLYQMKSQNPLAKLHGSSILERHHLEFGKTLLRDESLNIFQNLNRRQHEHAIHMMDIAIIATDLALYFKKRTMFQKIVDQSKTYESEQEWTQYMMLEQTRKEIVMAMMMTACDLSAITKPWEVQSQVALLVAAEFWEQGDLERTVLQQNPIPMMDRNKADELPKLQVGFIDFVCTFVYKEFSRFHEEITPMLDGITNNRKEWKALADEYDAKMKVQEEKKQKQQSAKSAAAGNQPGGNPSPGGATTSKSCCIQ
# [6] = biological target: T1, Muscarinic acetylcholine receptor M5 (Homo sapiens, UniProt P08912)
# T1 sequence (P08912 whole entry): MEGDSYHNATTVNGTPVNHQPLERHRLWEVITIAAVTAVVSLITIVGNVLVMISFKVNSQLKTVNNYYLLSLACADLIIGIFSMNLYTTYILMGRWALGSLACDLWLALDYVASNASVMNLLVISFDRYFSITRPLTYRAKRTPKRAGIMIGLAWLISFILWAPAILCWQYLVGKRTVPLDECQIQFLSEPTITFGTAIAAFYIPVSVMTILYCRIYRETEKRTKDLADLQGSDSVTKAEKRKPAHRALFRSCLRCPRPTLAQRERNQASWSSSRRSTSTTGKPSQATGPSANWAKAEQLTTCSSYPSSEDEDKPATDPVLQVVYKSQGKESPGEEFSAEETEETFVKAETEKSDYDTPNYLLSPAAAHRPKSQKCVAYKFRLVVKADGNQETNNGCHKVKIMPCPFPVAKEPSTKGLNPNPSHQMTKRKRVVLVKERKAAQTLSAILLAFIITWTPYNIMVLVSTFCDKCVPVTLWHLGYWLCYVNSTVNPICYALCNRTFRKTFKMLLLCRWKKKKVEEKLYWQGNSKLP
# [7] = biological target: D(1B) dopamine receptor (Homo sapiens, UniProt P21918)
# Sequence of D(1B) dopamine receptor (P21918 whole entry): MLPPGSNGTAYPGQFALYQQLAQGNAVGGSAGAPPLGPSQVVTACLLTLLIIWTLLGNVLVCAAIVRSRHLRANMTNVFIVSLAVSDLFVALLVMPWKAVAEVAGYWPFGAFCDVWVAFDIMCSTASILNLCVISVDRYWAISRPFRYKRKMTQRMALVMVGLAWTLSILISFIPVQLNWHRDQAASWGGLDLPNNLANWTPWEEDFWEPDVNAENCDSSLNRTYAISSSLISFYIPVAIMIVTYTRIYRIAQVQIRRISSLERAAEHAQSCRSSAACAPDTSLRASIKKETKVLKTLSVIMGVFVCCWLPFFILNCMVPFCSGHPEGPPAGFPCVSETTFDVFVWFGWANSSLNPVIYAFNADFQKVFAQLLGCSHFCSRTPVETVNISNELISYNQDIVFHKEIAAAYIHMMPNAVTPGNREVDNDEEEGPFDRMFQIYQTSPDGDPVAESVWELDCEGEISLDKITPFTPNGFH
# [8] = biological target: T2, Alpha-1A adrenergic receptor (Homo sapiens, UniProt P35348)
# T2 sequence (P35348 whole entry): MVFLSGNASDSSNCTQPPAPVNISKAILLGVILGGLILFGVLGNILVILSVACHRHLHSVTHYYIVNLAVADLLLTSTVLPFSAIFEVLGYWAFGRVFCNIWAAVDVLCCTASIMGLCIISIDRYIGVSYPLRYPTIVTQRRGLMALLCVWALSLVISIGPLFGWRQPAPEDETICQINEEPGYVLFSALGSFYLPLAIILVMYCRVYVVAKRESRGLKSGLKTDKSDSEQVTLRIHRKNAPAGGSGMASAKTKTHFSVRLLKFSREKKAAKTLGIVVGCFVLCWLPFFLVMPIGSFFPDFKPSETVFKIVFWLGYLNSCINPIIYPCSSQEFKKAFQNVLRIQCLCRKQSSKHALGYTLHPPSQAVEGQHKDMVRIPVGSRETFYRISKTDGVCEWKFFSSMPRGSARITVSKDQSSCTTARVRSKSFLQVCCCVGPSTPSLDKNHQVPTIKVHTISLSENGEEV
# [9] = biological target: Estrogen receptor beta (Homo sapiens, UniProt Q92731)
# Sequence of Estrogen receptor beta (Q92731 whole entry): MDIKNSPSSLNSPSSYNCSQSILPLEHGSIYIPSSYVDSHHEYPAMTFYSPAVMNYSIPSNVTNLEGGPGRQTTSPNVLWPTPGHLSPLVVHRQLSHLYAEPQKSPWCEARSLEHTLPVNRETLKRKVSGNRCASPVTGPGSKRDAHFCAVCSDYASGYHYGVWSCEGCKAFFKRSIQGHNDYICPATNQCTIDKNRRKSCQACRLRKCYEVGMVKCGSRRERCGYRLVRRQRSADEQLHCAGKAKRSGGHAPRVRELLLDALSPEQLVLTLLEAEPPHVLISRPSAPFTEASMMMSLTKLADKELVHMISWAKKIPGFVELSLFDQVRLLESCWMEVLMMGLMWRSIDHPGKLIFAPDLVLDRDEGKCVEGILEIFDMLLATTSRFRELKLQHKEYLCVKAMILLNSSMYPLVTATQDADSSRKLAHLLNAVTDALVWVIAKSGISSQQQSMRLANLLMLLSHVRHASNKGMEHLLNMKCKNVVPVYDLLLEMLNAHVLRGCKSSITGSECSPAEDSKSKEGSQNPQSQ
# [10] = biological target: T3, Prostaglandin G/H synthase 1 (Rattus norvegicus, UniProt Q63921); format: functional
# T3 sequence (Q63921 whole entry): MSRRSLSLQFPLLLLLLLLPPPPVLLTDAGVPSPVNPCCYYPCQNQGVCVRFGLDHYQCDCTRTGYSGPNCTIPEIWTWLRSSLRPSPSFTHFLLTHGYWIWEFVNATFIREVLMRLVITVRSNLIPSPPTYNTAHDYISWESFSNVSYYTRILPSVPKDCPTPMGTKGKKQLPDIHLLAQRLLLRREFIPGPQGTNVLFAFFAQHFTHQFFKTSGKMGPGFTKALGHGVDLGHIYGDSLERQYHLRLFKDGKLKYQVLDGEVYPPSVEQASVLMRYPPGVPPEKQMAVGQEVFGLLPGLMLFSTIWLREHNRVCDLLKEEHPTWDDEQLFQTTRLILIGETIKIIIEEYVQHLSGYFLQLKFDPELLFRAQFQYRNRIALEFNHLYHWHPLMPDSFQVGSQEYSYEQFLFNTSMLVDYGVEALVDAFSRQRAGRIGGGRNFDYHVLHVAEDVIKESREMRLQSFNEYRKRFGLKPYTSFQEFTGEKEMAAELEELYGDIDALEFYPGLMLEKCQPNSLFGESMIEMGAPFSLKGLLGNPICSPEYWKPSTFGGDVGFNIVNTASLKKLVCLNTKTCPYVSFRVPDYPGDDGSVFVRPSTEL
# [11] = biological target: T4, Gastric inhibitory polypeptide receptor (Homo sapiens, UniProt P48546)
# T4 sequence (P48546 whole entry): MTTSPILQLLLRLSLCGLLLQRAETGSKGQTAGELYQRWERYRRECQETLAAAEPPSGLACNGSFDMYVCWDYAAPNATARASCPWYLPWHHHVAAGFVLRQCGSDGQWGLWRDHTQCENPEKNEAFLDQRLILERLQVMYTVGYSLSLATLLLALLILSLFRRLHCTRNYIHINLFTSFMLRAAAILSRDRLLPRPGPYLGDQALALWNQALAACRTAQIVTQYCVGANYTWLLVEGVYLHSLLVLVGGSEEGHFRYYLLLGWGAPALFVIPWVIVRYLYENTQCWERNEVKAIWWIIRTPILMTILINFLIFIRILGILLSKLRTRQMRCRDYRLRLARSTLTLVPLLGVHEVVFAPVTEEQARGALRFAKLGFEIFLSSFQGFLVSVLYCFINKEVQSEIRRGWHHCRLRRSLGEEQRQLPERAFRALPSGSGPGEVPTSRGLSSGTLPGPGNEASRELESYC
# [12] = biological target: T5, Corticotropin-releasing factor receptor 2 (Homo sapiens, UniProt Q13324)
# T5 sequence (Q13324 whole entry): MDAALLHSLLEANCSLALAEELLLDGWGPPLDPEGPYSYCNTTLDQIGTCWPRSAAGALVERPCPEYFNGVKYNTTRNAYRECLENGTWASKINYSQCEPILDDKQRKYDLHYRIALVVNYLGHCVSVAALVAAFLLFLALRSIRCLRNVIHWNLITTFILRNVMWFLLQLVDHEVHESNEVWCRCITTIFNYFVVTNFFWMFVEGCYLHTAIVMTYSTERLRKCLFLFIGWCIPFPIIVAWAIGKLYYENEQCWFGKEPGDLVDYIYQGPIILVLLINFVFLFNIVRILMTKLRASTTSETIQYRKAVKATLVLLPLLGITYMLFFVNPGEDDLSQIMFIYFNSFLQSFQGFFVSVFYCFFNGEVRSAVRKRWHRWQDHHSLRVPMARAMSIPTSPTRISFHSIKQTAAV
# [13] = biological target: Synaptic vesicular amine transporter (Rattus norvegicus, UniProt Q01827); format: functional
# Sequence of Synaptic vesicular amine transporter (Q01827 whole entry): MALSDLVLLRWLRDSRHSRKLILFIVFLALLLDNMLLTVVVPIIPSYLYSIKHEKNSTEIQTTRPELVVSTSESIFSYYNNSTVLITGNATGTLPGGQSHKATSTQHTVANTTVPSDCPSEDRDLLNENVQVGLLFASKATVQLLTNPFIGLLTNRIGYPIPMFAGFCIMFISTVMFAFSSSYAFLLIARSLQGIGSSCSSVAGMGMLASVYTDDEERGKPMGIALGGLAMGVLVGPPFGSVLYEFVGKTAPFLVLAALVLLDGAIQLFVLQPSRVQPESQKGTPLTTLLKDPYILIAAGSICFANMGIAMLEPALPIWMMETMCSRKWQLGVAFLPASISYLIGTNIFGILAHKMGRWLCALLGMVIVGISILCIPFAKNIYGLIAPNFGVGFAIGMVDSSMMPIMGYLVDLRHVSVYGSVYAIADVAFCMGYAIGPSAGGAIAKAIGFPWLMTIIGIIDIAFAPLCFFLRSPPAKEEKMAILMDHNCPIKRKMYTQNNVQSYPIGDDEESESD
# Also: assay procedure not described here.
# Sequence of Histamine H1 receptor (P35367 whole entry): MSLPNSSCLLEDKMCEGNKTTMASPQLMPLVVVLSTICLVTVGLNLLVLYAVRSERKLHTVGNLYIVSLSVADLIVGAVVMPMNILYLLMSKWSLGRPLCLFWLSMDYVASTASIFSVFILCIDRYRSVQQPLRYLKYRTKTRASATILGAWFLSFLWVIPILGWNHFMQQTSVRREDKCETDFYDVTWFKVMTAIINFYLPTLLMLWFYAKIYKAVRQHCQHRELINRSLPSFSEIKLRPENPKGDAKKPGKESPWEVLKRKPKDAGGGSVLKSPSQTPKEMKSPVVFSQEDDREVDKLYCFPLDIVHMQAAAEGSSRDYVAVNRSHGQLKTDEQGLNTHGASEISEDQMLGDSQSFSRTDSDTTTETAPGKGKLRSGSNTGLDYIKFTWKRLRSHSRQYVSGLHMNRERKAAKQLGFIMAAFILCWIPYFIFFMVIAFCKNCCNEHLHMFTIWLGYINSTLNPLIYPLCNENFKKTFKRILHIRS
# Sequence of Substance-P receptor (P25103 whole entry): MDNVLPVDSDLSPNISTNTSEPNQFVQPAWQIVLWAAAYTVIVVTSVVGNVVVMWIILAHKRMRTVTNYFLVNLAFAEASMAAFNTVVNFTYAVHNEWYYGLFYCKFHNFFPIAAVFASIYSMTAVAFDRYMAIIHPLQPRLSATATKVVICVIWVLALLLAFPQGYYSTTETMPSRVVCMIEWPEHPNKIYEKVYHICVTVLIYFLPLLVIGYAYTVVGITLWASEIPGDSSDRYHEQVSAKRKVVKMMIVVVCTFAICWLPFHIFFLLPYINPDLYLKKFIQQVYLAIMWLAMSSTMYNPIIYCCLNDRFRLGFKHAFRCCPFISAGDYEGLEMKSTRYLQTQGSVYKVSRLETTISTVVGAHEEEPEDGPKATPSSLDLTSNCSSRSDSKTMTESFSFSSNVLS
# Sequence of 5-hydroxytryptamine receptor 6 (P50406 whole entry): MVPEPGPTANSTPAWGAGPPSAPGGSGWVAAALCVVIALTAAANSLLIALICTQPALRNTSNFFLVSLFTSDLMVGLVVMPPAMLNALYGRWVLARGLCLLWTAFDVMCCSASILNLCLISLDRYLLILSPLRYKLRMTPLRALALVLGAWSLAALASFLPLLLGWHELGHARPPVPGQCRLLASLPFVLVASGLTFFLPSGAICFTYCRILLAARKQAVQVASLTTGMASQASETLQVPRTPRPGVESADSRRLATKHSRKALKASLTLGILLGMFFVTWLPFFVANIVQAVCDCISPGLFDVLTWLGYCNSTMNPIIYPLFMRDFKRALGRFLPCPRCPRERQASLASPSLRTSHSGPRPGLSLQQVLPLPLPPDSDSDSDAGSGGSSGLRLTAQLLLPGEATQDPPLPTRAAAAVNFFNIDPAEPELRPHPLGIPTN
smiles,measurement,setting,value
CN(C)C/C=C/C(=O)Nc1cc2c(Nc3ccc(F)c(Cl)c3)ncnc2cc1O[C@H]1CCOC1 [AFATINIB],AC50,[1],> 30 µM
O=C(/C=C/c1cccc(S(=O)(=O)Nc2ccccc2)c1)NO [BELINOSTAT],AC50,[2],2.47 µM
same,AC50,[3],> 10 µM
same,AC50,[4],> 10 µM
same,AC50,[5],> 10 µM
same,AC50,[6],> 10 µM
same,AC50,[7],> 10 µM
same,AC50,[8],> 30 µM
CC(O)(CS(=O)(=O)c1ccc(F)cc1)C(=O)Nc1ccc(C#N)c(C(F)(F)F)c1 (stereo not drawn) [BICALUTAMIDE],AC50,[9],> 30 µM
same,AC50,[2],> 10 µM
same,AC50,[3],> 10 µM
same,AC50,[4],> 10 µM
same,AC50,[6],> 10 µM
same,AC50,[10],> 30 µM
same,AC50,[11],> 30 µM
same,AC50,[12],> 30 µM
O=C(O)COCCN1CCN(C(c2ccccc2)c2ccc(Cl)cc2)CC1 (stereo not drawn) [CETIRIZINE],AC50,[9],> 30 µM
same,AC50,[3],> 10 µM
same,AC50,[11],> 30 µM
same,AC50,[12],> 30 µM
NC[C@H]1CC[C@H](C(=O)Oc2ccc(CCC(=O)O)cc2)CC1 [CETRAXATE],AC50,[8],> 30 µM
CC(=O)O[C@]1(C(C)=O)CC[C@H]2[C@@H]3C=C(Cl)C4=CC(=O)[C@@H]5C[C@@H]5[C@]4(C)[C@H]3CC[C@@]21C [CYPROTERONE ACETATE],AC50,[10],> 30 µM
CN[C@]1(c2ccccc2Cl)CCCCC1=O [ESKETAMINE],AC50,[13],> 30 µM
C[C@@H]1C[C@H]2[C@@H]3C[C@H](F)C4=CC(=O)C=C[C@]4(C)[C@@]3(F)[C@@H](O)C[C@]2(C)[C@@]1(OC(=O)c1ccco1)C(=O)SCF [FLUTICASONE FUROATE],AC50,[2],> 10 µM
same,AC50,[4],> 10 µM
same,AC50,[6],> 10 µM
CN(C)CCCN1c2ccccc2CCc2ccccc21 [IMIPRAMINE],AC50,[9],> 30 µM
same,AC50,[2],0.313 µM
same,AC50,[3],> 10 µM
same,AC50,[4],> 10 µM
same,AC50,[5],> 10 µM
same,AC50,[6],0.33 µM
same,AC50,[7],8.33 µM
same,AC50,[13],11.4 µM
same,AC50,[11],> 30 µM
same,AC50,[12],> 30 µM
CN(Cc1cnc2nc(N)nc(N)c2n1)c1ccc(C(=O)N[C@@H](CCC(=O)O)C(=O)O)cc1 [METHOTREXATE],AC50,[9],> 30 µM
same,AC50,[11],> 30 µM
same,AC50,[12],> 30 µM
OC[C@H]1O[C@@H](n2cnc3c2NC=NC[C@H]3O)C[C@@H]1O [PENTOSTATIN],AC50,[1],> 30 µM
CN[C@@H](C)[C@@H](O)c1ccccc1 [PSEUDOEPHEDRINE],AC50,[9],> 30 µM
same,AC50,[3],> 10 µM
same,AC50,[11],> 30 µM
same,AC50,[12],> 30 µM
O=C1OC(OC(=O)c2cccnc2Nc2cccc(C(F)(F)F)c2)c2ccccc21 (stereo not drawn) [TALNIFLUMATE],AC50,[1],> 30 µM
O=S1(=O)CCN(CN2CCS(=O)(=O)NC2)CN1 [TAUROLIDINE],AC50,[1],> 30 µM
same,AC50,[8],> 30 µM
COc1ccc2c(C(=S)N(C)CC(=O)O)cccc2c1C(F)(F)F [TOLRESTAT],AC50,[8],> 30 µM
